Experimental data as given in DBAASP.
Converted amounts (≈) assume the structure as drawn. “And” between values parts separate entries of the source, which are not always exact repeats. Equal values may be shown once. Blank lines part the entries; values can stand above or below the compound they belong to.

How the values were obtained:
Assay in all cases: ≥ marks a high value that may be exact or a test limit, other limits are often not marked, values filed in µg/mL are converted to µM
[1] = system: Salmonella enterica ATCC H9812
[2] = system: Bacillus licheniformis ATCC 14580
[3] = system: Enterococcus faecium 4W-9
[4] = system: Staphylococcus aureus MR
[5] = system: Staphylococcus aureus ATCC 29213
[6] = system: Bacillus cereus ATCC 14579
[7] = system: Proteus mirabilis ATCC 35659
[8] = system: Enterococcus faecalis 1F-1
[9] = system: Pseudomonas aeruginosa PAO1
[10] = system: Escherichia coli ATCC 25922
[11] = system: Enterococcus faecium 5F-10
[12] = system: Staphylococcus aureus 215
[13] = system: Enterococcus faecalis A4
[14] = system: Bacillus amyloliquefaciens ATCC 23842
[15] = system: Bacillus subtilis ATCC 6051
[16] = system: Escherichia coli K99
[17] = system: Enterococcus faecalis ATCC 29212
[18] = system: Pseudomonas aeruginosa ATCC 27853
[19] = system: Salmonella typhimurium ATCC 7731
[20] = system: Escherichia coli UB1005
[21] = system: Acinetobacter baumannii
[22] = system: Staphylococcus aureus ATCC 25923
[23] = system: Bacillus cereus CGMCC 1.932
[24] = system: Staphylococcus epidermidis ATCC 12228
[25] = system: Salmonella enterica subsp. enterica serovar Typhimurium ATCC 14028
[26] = system: Escherichia coli 078
[27] = system: Salmonella enterica subsp. enterica serovar Pullorum ATCC 7913
[28] = system: Escherichia coli K88
[29] = system: Bacillus subtilis CMCC 63501
[30] = system: Staphylococcus aureus ATCC 43300
[31] = system: Listeria monocytogenes CGMCC 1.1075
[32] = system: Escherichia coli DH5alpha
[33] = system: Staphylococcus aureus NBRC 13276
[34] = system: Pseudomonas aeruginosa NBRC 13275
[35] = system: Streptococcus mutans JCM 5705
[36] = system: Porphyromonas gingivalis ATCC 33277
[37] = system: Candida albicans NBRC 1385
[38] = system: Cutibacterium acnes JCM 6473
[39] = system: Acinetobacter baumannii KCTC 2508
[40] = system: Bacillus subtilis KCTC 2217
[41] = system: Bacillus subtilis ATCC 11060
[42] = system: Salmonella enterica subsp. enterica serovar Pullorum C79-13
[43] = system: Escherichia coli ER2566
[44] = system: Escherichia coli CVCC 1515
[45] = system: Salmonella enterica subsp. enterica serovar Typhimurium C77-31
[46] = system: Pseudomonas aeruginosa ATCC 21630
[47] = system: Escherichia coli CMCC 44102
[48] = system: Pseudomonas aeruginosa ATCC 10419
[49] = system: Pseudomonas aeruginosa ATCC 21625

SMILES: CC(C)C[C@H](NC(=O)[C@H](CC(C)C)NC(=O)[C@@H](N)CCC(=O)O)C(=O)N[C@@H](CO)C(=O)N[C@@H](CCCCN)C(=O)N[C@H](C(=O)N[C@@H](CC(=O)O)C(=O)O)C(C)C [ELLSKVD]
- MIC [1]: ≥ 159 µM
- MIC [2]: ≥ 159 µM
- MIC [3]: ≥ 159 µM
- MIC [4]: ≥ 79.7 µM
- MIC [5]: 79.7 µM (≈ 64 µg/mL)
- MIC [6]: ≥ 159 µM
- MIC [7]: ≥ 79.7 µM
- MIC [8]: ≥ 159 µM
- MIC [9]: > 159 µM
- MIC [10]: 79.7 µM (≈ 64 µg/mL)
- MIC [11]: ≥ 159 µM
- MIC [12]: ≥ 79.7 µM
- MIC [13]: ≥ 159 µM
- MIC [14]: ≥ 159 µM
- MIC [15]: ≥ 159 µM

SMILES: NCC(=O)N[C@@H](CCCN=C(N)N)C(=O)N[C@@H](Cc1c[nH]c2ccccc12)C(=O)N[C@@H](CCCN=C(N)N)C(=O)N[C@@H](Cc1c[nH]c2ccccc12)C(=O)N[C@@H](Cc1c[nH]c2ccccc12)C(=O)N[C@@H](Cc1c[nH]c2ccccc12)C(=O)N[C@@H](CCCN=C(N)N)C(=O)N[C@@H](Cc1c[nH]c2ccccc12)C(=O)N[C@@H](CCCN=C(N)N)C(=O)N[C@@H](Cc1c[nH]c2ccccc12)C(N)=O [GRWRWWWRWRW]
- MIC [16]: 2 µM (≈ 3.63 µg/mL)
- MIC [17]: 2 µM (≈ 3.63 µg/mL)
- MIC [18]: 8 µM (≈ 14.5 µg/mL)
- MIC [19]: 16 µM (≈ 29.1 µg/mL)
- MIC [20]: 4 µM (≈ 7.26 µg/mL)
- MIC [21]: 2 µM (≈ 3.63 µg/mL)
- MIC [22]: 2 µM (≈ 3.63 µg/mL)
- MIC [23]: 8 µM (≈ 14.5 µg/mL)
- MIC [24]: 4 µM (≈ 7.26 µg/mL)
- MIC [9]: 4 µM (≈ 7.26 µg/mL)
- MIC [25]: 2 µM (≈ 3.63 µg/mL)
- MIC [26]: 4 µM (≈ 7.26 µg/mL)
- MIC [27]: 2 µM (≈ 3.63 µg/mL)
- MIC [28]: 2 µM (≈ 3.63 µg/mL)
- MIC [29]: 8 µM (≈ 14.5 µg/mL)
- MIC [30]: 2 µM (≈ 3.63 µg/mL)
- MIC [31]: 2 µM (≈ 3.63 µg/mL)

SMILES: CC(=O)N[C@@H](CCCCN)C(=O)N[C@@H](Cc1ccccc1)C(=O)N[C@@H](CC(C)C)C(=O)N[C@@H](Cc1cnc[nH]1)C(=O)N[C@@H](CO)C(=O)N[C@@H](C)C(=O)N[C@@H](CCCCN)C(=O)N[C@@H](CCCCN)C(=O)N[C@@H](Cc1ccccc1)C(=O)NCC(=O)N[C@@H](CCCCN)C(=O)N[C@@H](C)C(=O)N[C@@H](Cc1ccccc1)C(=O)N[C@H](C(N)=O)C(C)C [KFLHSAKKFGKAFV]
- MIC [32]: ≥ 200 µM
- MIC [33]: ≥ 400 µM
- MIC [34]: ≥ 200 µM

The remaining lines, values ahead:

- MIC [35]: ≥ 1020 µM
- MIC [36]: ≥ 1020 µM
- MIC [37]: ≥ 1020 µM
- MIC [38]: ≥ 1020 µM
SMILES: CC[C@H](C)[C@H](NC(=O)[C@H](CCCN=C(N)N)NC(=O)CNC(=O)[C@H](Cc1ccc(O)cc1)NC(=O)[C@H](CCC(N)=O)NC(=O)[C@H](CC(N)=O)NC(=O)[C@@H](N)CCCCN)C(=O)N[C@@H](CCCN=C(N)N)C(=O)N[C@H](C(=O)N[C@@H](CC(C)C)C(=O)N[C@@H](CCC(N)=O)C(=O)N[C@@H](CCCN=C(N)N)C(=O)N[C@@H](Cc1ccccc1)C(=O)N[C@@H](CC(N)=O)C(=O)N[C@@H](CCC(N)=O)C(=O)N[C@@H](CCCN=C(N)N)C(=O)O)C(C)C [KNQYGRIRVLQRFNQR]

- MIC [22]: 1.56 µM and > 0.78 µM
- MIC [39]: 12.5 µM (≈ 22 µg/mL)
- MIC [40]: 3.13 µM (≈ 5.52 µg/mL)
SMILES: CC(C)C[C@H](NC(=O)[C@H](CCCCN)NC(=O)[C@H](CCCCN)NC(=O)[C@H](CC(C)C)NC(=O)[C@H](CC(C)C)NC(=O)[C@@H]1CCCN1C(=O)[C@H](CCCCN)NC(=O)[C@H](CCCCN)NC(=O)[C@H](CC(C)C)NC(=O)[C@H](CC(C)C)NC(=O)[C@H](CCCCN)NC(=O)[C@H](CCCCN)NC(=O)[C@H](Cc1c[nH]c2ccccc12)NC(=O)[C@@H](N)CCCCN)C(N)=O [KWKKLLKKPLLKKL]

- MIC [17]: 0.987 µM (≈ 3.3 µg/mL)
- MIC [18]: 4.01 µM (≈ 13.4 µg/mL)
- MIC [41]: 0.987 µM (≈ 3.3 µg/mL)
- MIC [20]: 0.987 µM (≈ 3.3 µg/mL)
- MIC [42]: 4.01 µM (≈ 13.4 µg/mL)
- MIC [5]: 2 µM (≈ 6.7 µg/mL)
- MIC [43]: 0.987 µM (≈ 3.3 µg/mL)
- MIC [44]: 0.509 µM (≈ 1.7 µg/mL)
- MIC [22]: 7.99 µM (≈ 26.7 µg/mL)
- MIC [45]: 2 µM (≈ 6.7 µg/mL)
- MIC [46]: 4.01 µM (≈ 13.4 µg/mL)
- MIC [47]: 2 µM (≈ 6.7 µg/mL)
- MIC [24]: 4.01 µM (≈ 13.4 µg/mL)
- MIC [25]: 4.01 µM (≈ 13.4 µg/mL)
- MIC [26]: 4.01 µM (≈ 13.4 µg/mL)
- MIC [48]: 2 µM (≈ 6.7 µg/mL)
- MIC [49]: 2 µM (≈ 6.7 µg/mL)
- MIC [28]: 0.509 µM (≈ 1.7 µg/mL)
SMILES: CC[C@H](C)[C@H](NC(=O)[C@H](CCCCN)NC(=O)[C@H](CCCCN)NC(=O)[C@H](CC(C)C)NC(=O)[C@H](CCCN=C(N)N)NC(=O)[C@H](Cc1c[nH]c2ccccc12)NC(=O)[C@H](CCCN=C(N)N)NC(=O)[C@@H](NC(=O)[C@H](CCCCN)NC(=O)[C@H](Cc1c[nH]c2ccccc12)NC(=O)[C@H](CCCN=C(N)N)NC(=O)[C@H](CC(C)C)NC(=O)[C@H](CCCN=C(N)N)NC(=O)[C@H](CCCN=C(N)N)NC(=O)[C@H](Cc1ccccc1)NC(=O)[C@@H](N)CCCN=C(N)N)[C@@H](C)O)C(=O)N[C@@H](Cc1c[nH]c2ccccc12)C(=O)N[C@@H](Cc1c[nH]c2ccccc12)C(=O)N1CCC[C@H]1C(=O)N[C@@H](Cc1ccccc1)C(=O)N[C@@H](CC(C)C)C(=O)N[C@@H](CCCN=C(N)N)C(=O)N[C@@H](CCCN=C(N)N)C(N)=O [RFRRLRWKTRWRLKKIWWPFLRR]
